Assay results as given in patent publication US20090306003A1, “Pesticide Delivery System” (priority 2006, published 2009).

Assay: logP by chromatography, internally standardized with toluene and triphenylene
Assay type: physicochemical
Details: pH = 7
Protocol: Microblends of herbicides were prepared using melts of mixtures of nonionic block copolymer and ethoxylated surfactants. Specifically, tristyrylphenol etoxylate (Soprophor BSU, Rhodia) was used in combination with Pluronic P123 (PEO20-PPO69-PEO20), The list of the herbicides and corresponding log P values (the log P values were measured according procedure described by Donovan and Pescatore, J. Chromatography A 2002, 952, 47-61) are presented in Table 24. All log P values were measured at pH 7, except for clethodim, measured at pH 2. First, a stock blend of Pluronic P123 and Soprophor BSU was prepared by melting together 50 g of Pluronic P123 with 50 g of Soprophor BSU at 70° C. to form a clear, homogeneous melt. Composition of the copolymer/surfactant mixture was P123:Soprophor=1:1 by weight. […] The mixtures were heated at 70° C. for 10 min and shaken.

Row | Compound | logP Average
1 | COP(=S)(OC)Oc1c(Cl)cc(C)cc1Cl [Tolclofos-methyl] | 4.418
2 | Trisulfuron-methyl | 0.510
